Results published in patent publication US20160313303A1, “BICOMPATIBLE LIQUID AND METHOD FOR SCREENING SAME” (KABUSHIKI KAISHA TOYOTA CHUO KENKYUSHO, priority 2015, published 2016).
Where two headings read alike, the source gives them in different places.

Key:
[1] = test system: Human airway epithelial cell line BEAS-2B; assay: Cytotoxicity test (WST-8 assay) after direct contact of test liquids with cells for about 2 hours; normalized cell survival rate; conditions: direct contact with test liquid about 2 hours, WST-8 24 hours after contact, control liquid (0.5% FBS-containing RPMI-1640) = 1
[2] = test system: leaves of Arabidopsis thaliana
Protocol: (§1) Further, the leaves used for the test after observation were soaked in water over 16 hours followed by observation. Water was used as a control. Although water is cytotoxic to naked cells, it is not cytotoxic to cells having cell walls, and thus could be used as a control.

[3] = test system: leaves of Arabidopsis thaliana; assay: Soaking of plant leaves in organic solvents, observation of appearance; conditions: for change in the appearance of leaves: leaf of A. thaliana soaked in the solvent, observed after 2 hours
Protocol: as §1

[4] = test system: human airway epithelial cells Calu-3; assay: WST-8 absorbance of cells on porous support after contact with solutions of PFOA in hydrofluoroether; assay type: cell-based; conditions: PFOA in hydrofluoroether (C4F9OC2H5); for absorbance (WST-8): 15 hours
Protocol: In the present Example, hydrofluoroether (C4F9OC2H5) was used as the non-hydrophilic liquid and perfluorooctanoic acid (PFOA) was used as the non-hydrophilic substance. Solutions of PFOA in hydrofluoroether having various PFOA concentrations ([…], 1 and 10 g/L) were prepared. The solutions correspond to the second liquid of the present disclosure.
In the similar manner as Example 4 except that the solutions of PFOA in hydrofluoroether were used, the procedure was carried out up to the pre-cultivation step. Thereafter the cultivation step was carried out by using the solutions as the second liquid and leaving the device in the CO2 incubator for 15 hours.
Thereafter […], was removed from the cavity of the insert 24, 200 μl of an aqueous solution of a medium containing WST-8 (2-(2-methoxy-4-nitrophenyl)-3(4-nitrophenyl)-5-(2,4-disulfophenyl)-2H-tetrazolium), which is a kind of a tetrazolium salt, was added and the device was let to stand in the CO2 incubator for 20 minutes for cultivation.
Thereafter 100 μl of the medium was transferred from the insert 24 of the cell structure into a microplate and the absorbance at the wavelengths 450 nm and 600 nm was measured.

[5] = test system: human airway epithelial cells Calu-3; assay: Transepithelial electric resistance (TER) of cells on porous support after contact with non-hydrophilic liquids; assay type: cell-based; conditions: Calu-3, 3 hours contact with 200 ul liquid, TER after 24 hours in fresh medium, FIG. 18
Protocol: In the present Example, an action of non-hydrophilic liquids having the fluorocarbon structure was evaluated using human airway epithelial cells Calu-3. As a device for evaluation, the evaluation device 20 illustrated in FIG. 16 was used. […] At the bottom of each insert, a porous support 28 is provided that can retain and cultivate cells.
Cells were inoculated on each support 28 in the insert 24 and the space in the well 22 other than the insert 24 and the cavity in the insert 24 were filled with the cell growth medium. The evaluation device 20 was then left to stand in a CO2 incubator for a few days to allow dense growth of cells on the whole upper surface of the support 28, thereby carrying out the pre-cultivation step. In the pre-cultivation step, the transepithelial electric resistance (TER) was measured over time to confirm that a barrier (coverage and functional tight junctions) was constructed on the surface of the cells that is in contact with the insert 24.
Next, a cell structure illustrated in FIG. 17 was prepared. […]
After 24 hours, the cells on the support 28 in the cell structure removed from the CO2 incubator were again measured for the transepithelial electric resistance (TER) after removal of the growth medium in order to confirm the extent of formation of the cell barrier. […]

Row | Molecule | Normalized cell survival rate [1] | other results
1 | O [P1, Water, reference compound] | 0.01 | –
2 | CCO [P2, Ethanol, reference compound] | 0.01 | change in the appearance of leaves [2]: eroded epidermal cells of the leaves of A. thaliana and caused effusion of chlorophyll
3 | CC(C)=O [P3, Acetone, reference compound] | 0.01 | change in the appearance of leaves [3]: eroded epidermal cells of the leaves of A. thaliana and caused effusion of chlorophyll; change in the appearance of leaves after subsequent soaking in water ([3]; leaves after the 2 hours test soaked in water over 16 hours, compared to control water): caused atrophy (deformation) of leaves of A. thaliana
4 | CCOCC [P4, Diethyl ether, reference compound] | 0.01 | –
5 | O=C(O)C(F)(F)C(F)(F)C(F)(F)C(F)(F)C(F)(F)C(F)(F)C(F)(F)F [PFOA, perfluorooctanoic acid] | – | PFOA concentration with an action of causing cell death ([4]; Calu-3, 15 hours): ≥ 1 g/L; absorbance (WST-8) ([4]; at or above 1 g/L of PFOA): hardly detected; absorbance (WST-8) ([4]; until PFOA concentration 0.1 g/L): almost at the same level
6 | FC(F)(F)c1cccc(C(F)(F)F)c1 [S1, 1,3-Bis(Trifluoromethyl) Benzene] | 0.01 | –
7 | FC(F)(F)C(F)(F)C(F)(F)C(F)(F)C(F)(F)C(F)(F)F [S2, Perfluorohexane, PFC 5060] | – | effect on cell death or intercellular tight junctions (TER) [5]: significantly promoted cell death and the like
8 | OCC(F)(F)C(F)(F)C(F)(F)C(F)(F)C(F)(F)C(F)F [S4, 1H,1H,7H-Dodecafluoro-1-heptanol] | 0.01 | –
9 | COC(F)(F)C(F)(F)C(F)(F)C(F)(F)F [S5, HFE-7100] | 1.04 | –
10 | COC(F)(C(F)(F)C(F)(F)F)C(F)(C(F)(F)F)C(F)(F)F (stereo not shown) [S7, HFE-7300] | 0.92 | change in the appearance of leaves [3]: did not change an appearance of leaves of A. thaliana
11 | C[Si](C)(C)O[Si](C)(C)C [S16, OS-10 (Hexamethyldisiloxane)] | 0 | –
12 | C[Si](C)(C)O[Si](C)(C)O[Si](C)(C)C [S17, OS-20 (Octamethyltrisiloxane)] | 0.05 | –
13 | C[Si](C)(C)O[Si](C)(C)O[Si](C)(C)O[Si](C)(C)C [S18, OS-30 (Decamethyltetrasiloxane)] | 0.92 | –
14 | C[Si]1(C)O[Si](C)(C)O[Si](C)(C)O[Si](C)(C)O[Si](C)(C)O1 [S19, Decamethylcyclopentasiloxane] | 0.92 | –
15 | FC(F)(F)C(F)(F)C(F)(F)C(F)(F)C(F)(F)C(F)(F)C(F)(F)C(F)(F)Br [S20, 1-Bromoperfluorooctane] | 1.2 | –
16 | COC(F)(F)C(F)(F)C(F)(F)F [S21, HFE-7000] | 1.01 | –
17 | HFE-7200 [S6] | 0.88 | change in the appearance of leaves [3]: did not change an appearance of leaves of A. thaliana; effect on cell death or intercellular tight junctions (TER) [5]: had less effect on cell death or intercellular tight junctions than perfluorohexane, which effect was almost the same as the controls
